Experimental data reported in US8563584B2, “Substituted enaminothiocarbonyl compounds” (Bayer CropScience AG, priority 2008, dated 2013).

Assays:
[1] = test system: larvae of the mustard beetle (Phaedon cochleariae); assay: Phaedon test (PHAECO spray treatment); format: in vivo; details: application rate of 500 g/ha; spray treatment of Chinese cabbage leaf discs
Method: Phaedon Test ([…] Spray Treatment) Solvents: 78 parts by weight of acetone • • 1.5 parts by weight of dimethylformamide Emulsifier: 0.5 part by weight of alkylaryl polyglycol ether To produce a suitable preparation of active compound, 1 part by weight of active compound is mixed with the stated amounts of solvent and emulsifier, and the concentrate is diluted with emulsifier-containing water to the desired concentration. Discs of Chinese cabbage leaves (Brassica pekinensis) are sprayed with an active compound preparation of the desired concentration and, after drying, populated with larvae of the mustard beetle (Phaedon cochleariae). After the desired period of time, the effect in % is determined 100% means that all beetle larvae have been killed; 0% means that none of the beetle larvae have been killed.

[2] = test system: green peach aphid (Myzus persicae); assay: Myzus test (MYZUPE spray treatment); format: in vivo; details: application rate of 500 g/ha; spray treatment of infested Chinese cabbage leaf discs, all stages
Method: Myzus Test (MYZUPE Spray Treatment) Solvents: 78 parts by weight of acetone • • 1.5 parts by weight of dimethylformamide Emulsifier: 0.5 part by weight of alkylaryl polyglycol ether To produce a suitable preparation of active compound, 1 part by weight of active compound is mixed with the stated amounts of solvent and emulsifier, and the concentrate is diluted with emulsifier-containing water to the desired concentration. Discs of Chinese cabbage leaves (Brassica pekinensis) which are infested by all stages of the green peach aphid (Myzus persicae) are sprayed with a preparation of active compound of the desired concentration. After the desired period of time, the effect in % is determined 100% means that all aphids have been killed; 0% means that none of the aphids have been killed.

## FC(F)CN(Cc1ccc(Cl)nc1)C1=CC(=S)OC1 [Ex. No. 1, 4-{[(6-Chloropyridin-3-yl)methyl](2,2-difluoroethyl)amino}furan-2(5H)-thione]
[1]
  activity (effect in %; 100% means that all beetle larvae have been killed): ≥ 80%
[2]
  activity (effect in %; 100% means that all aphids have been killed): ≥ 80%
